Test [1] concerns JJN-3 cells. The experiment in a line: Antiproliferative activity on JJN-3 (NIK translocated) multiple myeloma cells (CellTiter-Glo). Type of test: cell-based, human. The following applies: JJN-3 (NIK translocated) cells, 96 hr treatment, averaged values, read-out: JJN-3 Proliferation inhibition (IC50 (nM)). As for the experimental part: (§1) Determination of Antiproliferative Activity on JJN-3 (NIK Translocated) and KMS12-BM (NIK WT) Multiple Myeloma Cells
(§2) All compounds tested were dissolved in DMSO and further dilutions were made in culture medium. Final DMSO concentration was 0.3% (v/v) in cell proliferation assays. Viability was assessed using CellTiter-Glo cell viability assay kit (Promega). The human JJN-3 and KMS12-BM cells (DSMZ) were cultured in RPMI 1640 medium supplemented with 2 mM L-glutamine, and 10% fetal calf serum (PAA). Cells were routinely kept as suspension cells at 37° C. in a humidified 5% CO2 atmosphere. Cells were passaged at a seeding density of 0.2×10^6/ml twice a week. Cells were seeded in black tissue culture treated 96-well plates (Perkin Elmer). Densities used for plating ranged from 15000 (JJN3) to 20000 (KMS12BM) cells per well in a total volume of […]. Drugs and/or solvents were added (15 μl) to a final volume of 150 μl. Following 96 hr of treatment, plates were removed from the incubator and allowed to equilibrate to room temperature for approx 10 min. 75 μl CellTiter-Glo reagent was added to each well that was then covered (Perkin Elmer Topseal) and shaken on plate shaker for 10 min. Luminescence was measured on a HTS Topcount (Perkin Elmer). Within an experiment, the results for each treatment were the mean of 2 replicate wells. For initial screening purposes, compounds were tested using a 9 point dilution curve (serial 1:3 dilutions). For each experiment, controls (containing no drug) and a blank incubation (containing cells read at the time of compound addition) were run in parallel. The blank value was subtracted from all control and sample values. For each sample, the mean value for cell growth (in relative light units) was expressed as a percentage of the mean value for cell growth of the control.
(In general: In ATP-based viability assays light output follows the ATP content of the culture.)

In test [2] the target is NIK/MAP3K14 (Homo sapiens (Human), UniProt Q99558). Put plainly: Inhibition of auto-phosphorylation of recombinant human NF-kappaB-inducing kinase (NIK/MAP3K14) activity (AlphaScreen). Type of test: biochemical. The following applies: averaged values over all measurements on all batches, 25 microM ATP. As to the method:
Inhibition of Auto-Phosphorylation of Recombinant Human NF-kappaB-Inducing Kinase ([…]) Activity (AlphaScreen®)
NIK/MAP3K14 auto-phosphorylation activity was measured using the AlphaScreen® (αscreen) format (Perkin Elmer). All compounds tested were dissolved in dimethyl sulfoxide (DMSO) and further dilutions were made in assay buffer. Final DMSO concentration was […] in assays. Assay buffer was 50 mM Tris pH 7.5 containing 1 mM EGTA (ethylene glycol tetraacetic acid), 1 mM DTT (dithiothreitol), 0.1 mM Na3VO4, 5 mM MgCl2, 0.01% Tween® 20. Assays were carried out in 384 well Alphaplates (Perkin Elmer). Incubations consisted of compound, 25 microM Adenosine-5′-triphosphate (ATP), and 0.2 nM NIK/MAP3K14. Incubations were initiated by addition of GST-tagged NIK/MAP3K14 enzyme, carried out for 1 h at 25° C. and terminated by addition of stop buffer containing anti-phospho-[…] Ser176/180 antibody. Protein A Acceptor and Glutathione-Donor beads were added before reading using an EnVision® Multilabel Plate Reader (Perkin Elmer). Signal obtained in the wells containing blank samples was subtracted from all other wells and IC50's were determined by fitting a sigmoidal curve to % inhibition of control versus Log10 compound concentration.
A general note: Alpha assays give light when donor and acceptor beads are brought close together.

For test [3], the system named is KMS12-BM cells. The experiment in a line: Antiproliferative activity on KMS12-BM (NIK WT) multiple myeloma cells (CellTiter-Glo). The test is classed as cell-based, human. As to conditions: 96 hr treatment, averaged values, read-out: KMS-12 Proliferation inhibition (IC50 (nM)). As to the method: as §1, §2

In patent US11186589B2, “Cyanoindoline derivatives as NIK inhibitors” (Janssen Pharmaceutica NV, priority 2016, dated 2021) one finds IC50 data, which are given here for 17 compounds.

Like-named read-outs stand apart in the source and are kept apart here.

Sequence of NIK/MAP3K14 (Q99558 whole entry): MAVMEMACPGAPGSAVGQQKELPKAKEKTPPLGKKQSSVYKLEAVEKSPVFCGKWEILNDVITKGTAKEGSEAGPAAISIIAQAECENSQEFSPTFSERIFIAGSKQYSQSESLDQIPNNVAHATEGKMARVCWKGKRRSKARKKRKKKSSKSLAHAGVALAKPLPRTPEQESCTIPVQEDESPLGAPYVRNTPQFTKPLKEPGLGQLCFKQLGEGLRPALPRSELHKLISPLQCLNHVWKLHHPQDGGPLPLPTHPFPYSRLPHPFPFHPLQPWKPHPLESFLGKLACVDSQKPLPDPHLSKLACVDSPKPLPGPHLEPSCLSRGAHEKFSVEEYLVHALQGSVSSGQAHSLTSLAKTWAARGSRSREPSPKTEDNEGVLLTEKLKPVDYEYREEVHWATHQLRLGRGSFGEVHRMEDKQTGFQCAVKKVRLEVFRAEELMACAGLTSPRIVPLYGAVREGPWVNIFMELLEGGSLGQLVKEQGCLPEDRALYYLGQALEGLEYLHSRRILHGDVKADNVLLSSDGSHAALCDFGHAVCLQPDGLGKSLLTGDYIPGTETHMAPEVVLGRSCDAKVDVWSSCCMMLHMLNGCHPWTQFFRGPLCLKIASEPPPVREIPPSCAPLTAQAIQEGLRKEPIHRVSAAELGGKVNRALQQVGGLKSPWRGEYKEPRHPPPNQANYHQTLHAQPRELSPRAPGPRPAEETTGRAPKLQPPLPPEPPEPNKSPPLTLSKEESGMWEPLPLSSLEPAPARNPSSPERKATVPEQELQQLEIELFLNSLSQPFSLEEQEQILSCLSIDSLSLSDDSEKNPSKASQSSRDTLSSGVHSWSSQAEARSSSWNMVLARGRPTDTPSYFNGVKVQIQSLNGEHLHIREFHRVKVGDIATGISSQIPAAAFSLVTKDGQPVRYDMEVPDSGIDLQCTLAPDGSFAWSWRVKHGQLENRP

On to `CC1(C)CNc2c(C#N)cc(-c3ccnc(Nc4cccc5c4CNC5)n3)cc21` [Compound 2], for which the IC50 is 112 nM in test [1] (Homo sapiens, JJN-3, 96 h); 4.3 nM in test [2]; approximately 177 nM in test [3] (Homo sapiens, KMS-12-BM, 96 h).

As to `Cn1nc(Nc2nccc(-c3cc(C#N)c4c(c3)C(C)(CO)CN4)n2)c2c1CCC2` (stereo not shown) [Compound 5b], the IC50 was 468 nM in test [1] (Homo sapiens, JJN-3, 96 h); 20.4 nM in test [2]; more than 10000 nM in test [3] (Homo sapiens, KMS-12-BM, 96 h).

On to `CC1(CO)CNc2c(C#N)cc(-c3ccnc(Nc4cc(Cl)cc5c4ccn5CCCN4CCOCC4)n3)cc21` (stereo not shown) [Compound 5c], for which the IC50 in test [1] (Homo sapiens, JJN-3, 96 h) is 23 nM; in test [2], 12 nM; in test [3] (Homo sapiens, KMS-12-BM, 96 h) it was approximately 692 nM.

Consider `CC1(CO)CNc2c(C#N)cc(-c3ccnc(Nc4ccc5c(c4)CCCO5)n3)cc21` (stereo not shown) [Compound 1], for which the IC50 is 96 nM in test [1] (Homo sapiens, JJN-3, 96 h); 5.9 nM in test [2]; 550 nM in test [3] (Homo sapiens, KMS-12-BM, 96 h).

With `COCCn1ccc2cc(Nc3nccc(-c4cc(C#N)c5c(c4)[C@@](C)(CO)CN5)n3)c(OC)nc21` [Compound 14c], the IC50 in test [1] (Homo sapiens, JJN-3, 96 h) is 63 nM; in test [2], 5.6 nM; in test [3] (Homo sapiens, KMS-12-BM, 96 h) it was more than 10000 nM.

Take `CN(C)C(=O)C1COc2c(cc(Cl)cc2Nc2nccc(-c3cc(C#N)c4c(c3)[C@@](C)(CO)CN4)n2)C1` (stereo partly shown) [Compound 11]: the IC50 in test [1] (Homo sapiens, JJN-3, 96 h) came out at 36 nM; in test [2], 9.1 nM; in test [3], 1180 nM.

Turning to `CN(C)C(=O)C1COc2c(cc(Cl)cc2Nc2nccc(-c3cc(C#N)c4c(c3)[C@@](C)(CO)CN4)n2)C1` (stereo partly shown) [Compound 12], the IC50 is 22 nM in test [1], 14.1 nM in test [2] and approximately 6610 nM in test [3].

For the compound `CC1(CO)CNc2c(C#N)cc(-c3ccnc(Nc4cc5n(n4)CCOC5)n3)cc21` (stereo not shown) [Compound 7b], the IC50 in test [1] (Homo sapiens, JJN-3, 96 h) amounted to 1700 nM; in test [2] it was 11.8 nM; in test [3] (Homo sapiens, KMS-12-BM, 96 h), 6310 nM.

For the compound `CC(C)c1c(Nc2nccc(-c3cc(C#N)c4c(c3)[C@@](C)(CO)CN4)n2)nn2c1CN(C)CC2` [Compound 16b], the IC50 in test [2] is 363 nM.

With `CN1CCn2nc(Nc3nccc(-c4cc(C#N)c5c(c4)C(C)(CO)CN5)n3)cc2C1` (stereo not shown) [Compound 9b], the IC50 stood at 204 nM in test [1] (Homo sapiens, JJN-3, 96 h); 6.8 nM in test [2]; 1660 nM in test [3] (Homo sapiens, KMS-12-BM, 96 h).

For `CC1(CO)CNc2c(C#N)cc(-c3ccnc(Nc4ccc5c(c4)CC(CO)OC5)n3)cc21` (single isomer, unassigned) [Compound 5], the IC50 in test [1] (Homo sapiens, JJN-3, 96 h) came to 21 nM; in test [2], 1.9 nM; in test [3] (Homo sapiens, KMS-12-BM, 96 h), 151 nM.

For the compound `CN(C)CC(=O)N1CCc2c(Nc3nccc(-c4cc(C#N)c5c(c4)[C@@](C)(CO)CN5)n3)cc(Cl)cc21` [Compound 13], the IC50 was 18 nM in test [1] (Homo sapiens, JJN-3, 96 h); 1.3 nM in test [2]; approximately 3550 nM in test [3] (Homo sapiens, KMS-12-BM, 96 h).

Take `Cc1c(Nc2nccc(-c3cc(C#N)c4c(c3)C(C)(CO)CN4)n2)cc(Cl)c2[nH]ccc12` (stereo not shown) [Compound 9c]: the IC50 came to 1180 nM in test [1] (Homo sapiens, JJN-3, 96 h); 10.5 nM in test [2]; 5620 nM in test [3] (Homo sapiens, KMS-12-BM, 96 h).

For the compound `CC1(CO)CNc2c(C#N)cc(-c3ccnc(Nc4ccc5c(c4)C(F)(F)CCO5)n3)cc21` (stereo not shown) [Compound 7], the IC50 in test [1] (Homo sapiens, JJN-3, 96 h) is 48 nM; in test [2] it was 5.9 nM; in test [3] (Homo sapiens, KMS-12-BM, 96 h), 525 nM.

Consider `Cn1nc2c(c1Nc1nccc(-c3cc(C#N)c4c(c3)C(C)(CO)CN4)n1)CCC2` (stereo not shown) [Compound 4b], for which the IC50 in test [1] (Homo sapiens, JJN-3, 96 h) was 1900 nM; in test [2] it was 8.5 nM; in test [3] (Homo sapiens, KMS-12-BM, 96 h) it was approximately 6460 nM.

For the compound `Cc1c(Nc2nccc(-c3cc(C#N)c4c(c3)[C@@](C)(CO)CN4)n2)ccc2c1CCN2C(=O)CN(C)C` [Compound 15], the IC50 is 89 nM in test [1] (Homo sapiens, JJN-3, 96 h); 2.5 nM in test [2]; 96 nM in test [3] (Homo sapiens, KMS-12-BM, 96 h).

For the compound `CN1CCc2[nH]c(=O)c(Nc3nccc(-c4cc(C#N)c5c(c4)C(C)(CC(F)F)CN5)n3)cc2C1` (stereo not shown) [Compound 57], the IC50 in test [1] (Homo sapiens, JJN-3, 96 h) is 11200 nM; in test [2] it was 17.4 nM; in test [3] (Homo sapiens, KMS-12-BM, 96 h), more than 10000 nM.
